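Assay format: 96-well plates, 48-hour exposure. GI50 = concentration required for 50% inhibition of growth.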 Active and inactive are the calls of the source. Cut-off read from the data, not from the text of the source: active = GI50 up to about 1.1 µM and inactive = higher.
What was measured:
Experiment in all cases: DTP human tumour cell line panel, 48 h
CAKI-1 = system: CAKI-1
LXFL 529 = system: LXFL 529
MOLT-4 = system: MOLT-4
NCI-H226 = system: NCI-H226
SK-MEL-2 = system: SK-MEL-2
HOP-62 = system: HOP-62
UACC-62 = system: UACC-62
OVCAR-8 = system: OVCAR-8
SF-539 = system: SF-539
DMS-273 = system: DMS-273
SF-268 = system: SF-268
A498 = system: A498
DLD-1 = system: DLD-1
HCT-15 = system: HCT-15
RXF 393 = system: RXF 393
IGROV-1 = system: IGROV-1
EKVX = system: EKVX
HT-29 = system: HT-29
PC-3 = system: PC-3
MCF7 = system: MCF7

Structure (SMILES) | GI50 (CAKI-1) | GI50 (LXFL 529) | GI50 (MOLT-4) | GI50 (NCI-H226) | GI50 (SK-MEL-2) | GI50 (HOP-62) | GI50 (UACC-62) | GI50 (OVCAR-8) | GI50 (SF-539) | GI50 (DMS-273) | GI50 (SF-268) | GI50 (A498) | GI50 (DLD-1) | GI50 (HCT-15) | GI50 (RXF 393) | GI50 (IGROV-1) | GI50 (EKVX) | GI50 (HT-29) | GI50 (PC-3) | GI50 (MCF7)
Cc1ccc(S(=O)(=O)NC2(C=O)CCCC3CCCCC32)cc1 (stereo unspecified) | > 100 µM (inactive) | > 100 µM (inactive) | > 100 µM (inactive) | > 100 µM (inactive) | > 100 µM (inactive) | > 100 µM (inactive) | > 100 µM (inactive) | > 100 µM (inactive) | > 100 µM (inactive) | > 100 µM (inactive) | > 100 µM (inactive) | > 100 µM (inactive) | > 100 µM (inactive) | > 100 µM | > 100 µM (inactive) | > 100 µM (inactive) |  |  |  | 
Cc1ccccc1-c1c(N)nc(NC#N)nc1C(=O)Nc1ccccc1 | > 100 µM (inactive) | 67.1 µM (inactive) | > 100 µM (inactive) | > 100 µM (inactive) | 32.1 µM (inactive) | > 100 µM (inactive) | > 100 µM (inactive) |  | > 100 µM (inactive) | > 100 µM (inactive) | > 100 µM (inactive) | > 100 µM (inactive) | > 100 µM (inactive) | > 100 µM | > 100 µM (inactive) | > 100 µM (inactive) | > 100 µM (inactive) | > 100 µM (inactive) |  | 
CCN(CC)CCNc1ccc(C)c2sc3ccc(O)cc3c(=O)c12 | 5.73 µM (inactive) | 1.28 µM (inactive) | < 0.012 µM (active) | 0.466 µM (active) | 1.79 µM (inactive) | 0.274 µM (active) | 0.986 µM (active) | 1.37 µM (inactive) | 1.15 µM (inactive) | 0.162 µM (active) | 1.8 µM (inactive) | 1.33 µM (inactive) | 1.66 µM (inactive) | 0.923 µM | 2.51 µM (inactive) | 1.23 µM (inactive) | 10.2 µM (inactive) | 1.58 µM (inactive) |  | 
Oc1nc(CC(O)c2ccc(Cl)c(Cl)c2)cc(-c2ccccc2)n1 (stereo unspecified) | 55.6 µM (inactive) | > 100 µM (inactive) | 75.3 µM (inactive) | 55.8 µM (inactive) | 26.1 µM (inactive) | > 100 µM (inactive) | 45.5 µM (inactive) | > 100 µM (inactive) | > 100 µM (inactive) | > 100 µM (inactive) | 80.7 µM (inactive) | 32.7 µM (inactive) | > 100 µM (inactive) | 89.1 µM | 41.1 µM (inactive) | > 100 µM (inactive) | 44.9 µM (inactive) | 40.5 µM (inactive) |  | 
Cc1cccc(NC(=O)C(=O)C2C(=O)NC(=O)NC2=O)c1C | > 100 µM (inactive) | > 100 µM (inactive) | > 100 µM (inactive) | > 100 µM (inactive) | > 100 µM (inactive) | > 100 µM (inactive) | > 100 µM (inactive) | > 100 µM (inactive) | > 100 µM (inactive) | > 100 µM (inactive) | > 100 µM (inactive) | > 100 µM (inactive) | > 100 µM (inactive) | > 100 µM | > 100 µM (inactive) | > 100 µM (inactive) | > 100 µM (inactive) | > 100 µM (inactive) |  | 
COC(=O)c1ccc(/C=C/S(=O)(=O)c2ccccc2)cc1 | > 100 µM (inactive) | > 100 µM (inactive) | > 100 µM (inactive) | > 100 µM (inactive) | > 100 µM (inactive) | > 100 µM (inactive) | > 100 µM (inactive) | > 100 µM (inactive) | > 100 µM (inactive) | > 100 µM (inactive) | > 100 µM (inactive) | > 100 µM (inactive) | > 100 µM (inactive) | > 100 µM | > 100 µM (inactive) | > 100 µM (inactive) | > 100 µM (inactive) | > 100 µM (inactive) |  | 
Cc1ccc(C2[C@H]3C(=O)N(c4ccc(Cc5ccc(N6C(=O)[C@@H]7ON(c8ccccc8)C(c8ccc(C)cc8)[C@@H]7C6=O)cc5)cc4)C(=O)[C@H]3ON2c2ccccc2)cc1 (stereo partly specified) | > 100 µM (inactive) | > 100 µM (inactive) | > 100 µM (inactive) | > 100 µM (inactive) | > 100 µM (inactive) | > 100 µM (inactive) | > 100 µM (inactive) |  | > 100 µM (inactive) | > 100 µM (inactive) | > 100 µM (inactive) | > 100 µM (inactive) | > 100 µM (inactive) | > 100 µM | > 100 µM (inactive) | > 100 µM (inactive) |  | > 100 µM (inactive) |  | 
c1cc2c(ncc3cscc32)s1 | > 72.4 µM (inactive) | > 100 µM (inactive) | > 100 µM (inactive) | > 61.7 µM (inactive) | > 100 µM (inactive) | > 100 µM (inactive) | > 31.6 µM (inactive) | > 100 µM (inactive) | > 100 µM (inactive) | > 100 µM (inactive) | > 100 µM (inactive) | 51.1 µM (inactive) | > 100 µM (inactive) | > 100 µM | > 79.3 µM (inactive) | > 31.6 µM (inactive) | > 100 µM (inactive) | > 100 µM (inactive) | > 100 µM (inactive) | > 100 µM (inactive)
NC(=O)C(=O)N/N=C(\CC1(O)C(=O)Nc2ccccc21)c1ccc2ccccc2c1 (stereo unspecified) | 35.2 µM (inactive) | 31.5 µM (inactive) | 20.9 µM (inactive) | 41.4 µM (inactive) | 22.1 µM (inactive) | 51.2 µM (inactive) | 19.8 µM (inactive) | 56 µM (inactive) | 48.9 µM (inactive) | 28.2 µM (inactive) | 40.9 µM (inactive) | 17.9 µM (inactive) | 37.8 µM (inactive) | 24.5 µM | 24.8 µM (inactive) | 40.5 µM (inactive) | 33.1 µM (inactive) | 34.4 µM (inactive) |  | 
O=C(Nc1nc2ncn(CCO)c2c(=O)[nH]1)c1ccccc1 | > 100 µM (inactive) | > 100 µM (inactive) |  | > 100 µM (inactive) | > 100 µM (inactive) | > 100 µM (inactive) | > 100 µM (inactive) | > 100 µM (inactive) | > 100 µM (inactive) | > 100 µM (inactive) | > 100 µM (inactive) | > 100 µM (inactive) | > 100 µM (inactive) | > 100 µM | > 100 µM (inactive) | > 100 µM (inactive) | > 100 µM (inactive) | > 100 µM (inactive) |  | 
CCC1(CN(C)C)CC/C(=C\c2ccc3c(c2)OCO3)C1=O (stereo unspecified) | > 100 µM (inactive) | > 100 µM (inactive) | > 100 µM (inactive) | > 100 µM (inactive) | > 100 µM (inactive) | > 100 µM (inactive) | > 100 µM (inactive) | 91.6 µM (inactive) | > 100 µM (inactive) | > 100 µM (inactive) | > 100 µM (inactive) | > 100 µM (inactive) | 82.2 µM (inactive) | > 100 µM | > 100 µM (inactive) | > 100 µM (inactive) | 52.1 µM (inactive) | 65.2 µM (inactive) |  | 
COC(=O)C1[C@@H](C(=O)OC)C12C=Cc1ccccc1C=C2 (stereo partly specified) |  | > 100 µM (inactive) | > 100 µM (inactive) |  | > 100 µM (inactive) | > 100 µM (inactive) | > 100 µM (inactive) | > 100 µM (inactive) | > 100 µM (inactive) | > 100 µM (inactive) | > 100 µM (inactive) | 38.5 µM (inactive) | > 100 µM (inactive) | > 100 µM | > 100 µM (inactive) | > 100 µM (inactive) | > 100 µM (inactive) |  |  | 
COC(=O)C1C(=O)O[C@@H](c2ccc(OC)cc2OC)C1C(=O)OC (stereo partly specified) | > 100 µM (inactive) | > 100 µM (inactive) | > 100 µM (inactive) | > 100 µM (inactive) |  | > 100 µM (inactive) | > 100 µM (inactive) | > 100 µM (inactive) | > 100 µM (inactive) | > 100 µM (inactive) | > 100 µM (inactive) | > 100 µM (inactive) | > 100 µM (inactive) | > 100 µM | > 100 µM (inactive) | > 100 µM (inactive) | > 100 µM (inactive) | > 100 µM (inactive) |  | 

From ChEMBL document CHEMBL1201862, “PubChem BioAssay data set” (2004)
